According to US20230348493A1, “COMPOUND FOR ADJUSTING ACTIVITY OF NMDA RECEPTOR, AND PHARMACEUTICAL COMPOSITION AND USE THEREOF” (BEIJING GREATWAY PHARMACEUTICAL TECHNOLOGY CO., LTD., priority 2020, published 2023):
Like-named read-outs stand apart in the source and are kept apart here.

Legend:
NMDA receptor [1] = molecular target: T1, NMDA receptor (Rattus norvegicus, UniProt P35439); experiment: NMDA receptor agonistic properties in rat crude synaptosomal proteins (maximum [3H]-MK-801 binding vs 1 mM glycine); format: biochemical; settings: maximum [3H]-MK-801 binding % relative to 1 mM glycine; 50 μM glutamic acid
T1 construct: After the rats were decapitated, the prefrontal cortex and hippocampus were rapidly separated on ice; from tissue; host or cells: SD male rat prefrontal cortex and hippocampus, crude synaptosomes
Protocol: (§1) After the rats were decapitated, the prefrontal cortex and hippocampus were rapidly separated on ice and weighed, 10 volumes of 50 mM Tris-HCl buffer (50 mM Tris-HCl, 5 mM MgCl2·6H2O, 1 mM EDTA, 0.5% (W/V) BSA, 1 mM PMSF, 0.32 M sucrose, pH 7.4) was added, and the mixture was homogenized for five times at 1500 revolutions/min with 30 s each time. A homogenate was centrifuged for 10 min at 1000×g, and a supernatant was taken and centrifuged for 10 min at 40,000×g, the precipitates were collected, re-suspended with volumes of Tris-HCl buffer, incubated at 37° C. for 10 min, and centrifuged for 10 min at 40,000×g, finally the precipitates were re-suspended with the above buffer, aliquoted and stored at −80° C. for later use.
(3) Detection of Influence of Tested Medicines on NMDA Receptor Agonistic Properties in Rat Crude Synaptosomal Proteins
100 μg of rat crude synaptosomal proteins was added to all tubes respectively. 50 μl of 5,7-dichlorokynurenic acid was added to a non-specific binding tube to achieve a final concentration of 10 μM. All tubes were preloaded with 50 μM of glutamic acid, and the materials were reacted for 15 min in advance. 20 μL of control drug at corresponding concentration was added to the test tube, and then reacted for 15 min. 1 mM glycine was added to the maximum reaction tube. A volume of 30 μl of labeled ligand [^3H]-MK-801 was successively added to all tubes to achieve a final concentration of 10 nM, and reacted for 15 min. All reaction tubes were supplemented to a volume of 500 μl with 50 mM Tris-HCl buffer (50 mM Tris-HCl, 5 mM MgCl2·6H2O, 1 mM EDTA, 0.5% (WN) BSA, 0.1% NaN3, pH 7.4). A reaction was carried out at 37° C. for 15 min. A type-49 glass fiber filter membrane was prepared and a sample was applied at the same time. The filter membrane was placed in a multi-head cell collector, and the reaction system was subjected to suction filtration under negative pressure and washed with an ice-cold 50 mM Tris-HCl buffer, 10 ml each time, for a total of 5 times. After suction drying, 1 ml of scintillation liquid was added to the filter membrane, the filter membrane was placed on the shaker for shaking for 1.5 h and then placed in the liquid scintillation counter on the next day to determine the radioactive intensity.
In an agonistic experiment, maximum [^3H]-MK-801 binding %=((tested compounds cpm−5,7 dichlorokynurenic acid cpm)/(1 mM glycine cpm−5,7 dichlorokynurenic acid cpm))×100%.

NMDA receptor [2] = molecular target: T1, NMDA receptor; experiment: Inhibition of [3H]-MK-801 binding to rat crude synaptosomes (receptor ligand binding assay); settings: affinity on NMDA; [3H]-MK-801 10 nM, rat prefrontal cortex and hippocampus crude synaptosomes; read-out: IC50
Protocol: The affinity of the tested compounds on NMDA receptor was researched by receptor ligand binding assays.
Ten SD male rats of SPF grade were ordered and acclimated for 7 days for future use.
as §1
(2) Detection of Inhibitory Function of Tested Medicines on Binding of Crude Synaptosomes in Rats to [^3H]-MK-801
50 μg of rat crude synaptosomal proteins was added to all tubes respectively. A volume of 50 μl of MK-801 (dizocilpine) was added to a non-specific binding tube to achieve a final concentration of 100 μM, and the materials were reacted for 15 min in advance. 20 μL of control drug at corresponding concentration was added to the test tube for reaction for 15 min. A volume of 30 μl of labeled ligand [^3H]-MK-801 was successively added to all tubes to achieve a final concentration of 10 nM. All reaction tubes were supplemented to a volume of 200 μl with 50 mM Tris-HCl buffer (50 mM Tris-HCl, 5 mM MgCl2·6H2O, 1 mM EDTA, 0.5% (WN) BSA, 0.1% NaN3, pH 7.4). A reaction was carried out at 37° C. for 10 min. A type-49 glass fiber filter membrane was prepared and a sample was applied at the same time. The filter membrane was placed in a multi-head cell collector, and a reaction system was subjected to suction filtration under negative pressure and washed with an ice-cold 50 mM Tris-HCl buffer, 10 ml each time, for a total of 5 times. After suction drying, 1 ml of scintillation liquid was added to the filter membrane, the filter membrane was placed on a shaker for shaking for 1.5 h and then placed in a liquid scintillation counter on the next day to determine the radioactive intensity.
GraphPad5.0 software was used to analyze the data, and the percentage of competitive inhibition was calculated through nonlinear fitting, wherein:
Percentage of competitive inhibition %=((total binding tube cpm−compound cpm)/(total binding tube cpm−non-specific binding tube cpm))×100%;
Specific binding amount=total binding amount−non-specific binding amount, wherein each binding site was determined by double compound tubes.

rats = experiment: Forced swimming test in rats; format: in vivo; settings: Rattus norvegicus, Po
Protocol: Pharmacodynamic evaluation was performed by the forced swimming tests in rats. The experimental animals were male SD rats weighing 150 g-180 g and being SPF grade, and acclimated for one week after purchase, and then subjected to forced swimming tests, the rats need be fasted for 12 hours before the tests. The compounds of examples were dissolved with normal saline, and blank control group (normal saline) and example compound administration group were established. 8-10 rats were provided for each group. On the day before the tests, the rats were placed in a glass cylinder with a height of 40 cm, an inner diameter of 18 cm, and a water depth of 23 cm for pre-swimming for 15 min, and a water temperature was 28° C. After the pre-swimming the rats were removed, wiped with a dry cloth, and dried with an electrical heater, then returned to a rearing cage, and administered. A formal forced swimming test was performed on the next day for a total of 5 min. The accumulated immobility time within 5 min was recorded, and a second forced swimming test was performed on the seventh day; the criteria for determining immobility were that the rats stopped struggling in the water, were in a floating state, and had only slight limb movements to keep the head floating on the water surface. The results are shown in Table 4, and the experimental data were statistically analyzed by GraphPad Prism 5.0 software.

[3] = In-vivo metabolism (pharmacokinetic) study in rats, oral / tail intravenous; settings: rat, plasma; for bioavailability: male, SD, oral 10 mg/kg vs intravenous 1 mg/kg, rats; for AUC(0-t) / Cmax: male SD rats
Protocol: The pharmacokinetic parameters such as exposure of plasma concentrations of the compounds of examples were evaluated by oral/tail intravenous injection model tests in rats in order to evaluate the in-vivo metabolic stability in rats.
The male SD rats weighing 200±20 g and being SPF grade were used in this experiment and purchased from SPF.
Preparation of intravenous solution: 1 mg of each tested medicine was weighed accurately, and a volume was metered to 5 mL with 0.9% sodium chloride solution to prepare 0.2 mg/mL. A dose volume was 1 mL for per 200 g of weight, and the dose was 1 mg for per 1 kg of weight based on the concentration conversion.
Preparation of intragastric solution: 10 mg of each tested medicine was accurately weighed, and a volume was metered to 10 mL with 0.9% sodium chloride solution to prepare 1 mg/mL of the solution. A dose volume was 2 mL for per 200 g of weight, and the dose was 10 mg for per 1 kg of weight based on the concentration conversion.
Rats were randomly divided into 8 groups, 6 rats were in each group, oral gavage administration and tail intravenous administration were performed according to the above doses. About 0.2 mL of orbital blood was collected before administration and at 2 min, 5 min, 15 min, 30 min, 1 h, 2 h, 3 h, 4 h and 6 h after administration, respectively, and centrifuged at 3000 rpm for 10 min at 4° C., and a supernatant was taken for LC/MS/MS determination. A DAS pharmacokinetics program was used to analyze the measured data and calculate the main pharmacokinetic parameters.

[4] = 48 h, Day 2, *P<0.05, **P<0.01 compared with the control group, read-out: Reduction percentage (%) of floating time, Day 2
[5] = 168 h, Day 7, *P<0.05, **P<0.01 compared with the control group, read-out: Reduction percentage (%) of floating time, Day 7

Row | Structure (SMILES) | Maximum agonistic efficacy (%) (NMDA receptor [1]) | IC50 (NMDA receptor [2]) [pM] | inhibition in vivo at 0.1 mg/kg (rats; [4]) [%] | inhibition in vivo at 0.1 mg/kg (rats; [5]) [%] | bioavailability [3] [%] | AUC(0-t) ([3]; Intravenous injection, 1 mg/kg) [ng·h/mL] | Cmax ([3]; Intravenous injection, 1 mg/kg) [ng/mL] | AUC(0-t) ([3]; Oral, 10 mg/kg) [ng·h/mL] | Cmax ([3]; Oral, 10 mg/kg) [ng/mL]
1 | C[C@@H](O)[C@H](N)C(=O)N1CC2(C1)NCCS2.Cl [A-006] | 32 | 440 | 36.4 | 22.2 | 21.2 | 16500 | 11600 | 35000 | 18400
2 | Cl.N[C@@H](CO)C(=O)N1CC2(C1)NCCS2 [A-007] | 56 | 890 | 35.1 | 32.4 | – | – | – | – | –
3 | CC(C)[C@H](N)C(=O)N1CC2(C1)NCCS2.Cl [A-008] | 35 | 890 | 54.9 | 57.3 | – | – | – | – | –
4 | C[C@@H](O)[C@H](N)C(=O)N1CCC2(C1)NCCS2.Cl (some centres unmarked) [A-020] | 42 | 250 | 51.8 | 59.3 | – | – | – | – | –
5 | C[C@@H](O)[C@H](N)C(=O)N1CCC2(CC1)NCCS2.Cl [A-034] | 25 | 890 | 71.9 | 60.1 | – | – | – | – | –
6 | CC(=O)N1CCSC12CN(C(=O)[C@@H](N)[C@@H](C)O)C2.Cl [A-066] | 29 | 350 | 68 | 55.3 | 54.5 | 1380 | 1690 | 7560 | 2080
7 | CC(=O)N1CCSC12CCN(C(=O)[C@@H](N)[C@@H](C)O)CC2.Cl [A-082] | 45 | 890 | – | – | 19.6 | 6850 | 18300 | 13400 | 5580
8 | CC(C)C(=O)N1CCSC12CN(C(=O)[C@@H](N)[C@@H](C)O)C2.Cl [A-098] | 28 | 980 | 64.5 | 13.9 | 19.1 | 952 | 1090 | 1820 | 767
9 | C[C@@H](O)[C@H](N)C(=O)N1CC2(C1)N[C@H](C(N)=O)CS2.Cl [A-258] | 21 | 330 | 74.8 | 56.4 | 27.3 | 4180 | 3630 | 11400 | 4910
10 | CC(C)[C@H](N)C(=O)N1CC2(C1)N[C@H](C(N)=O)CS2.Cl [A-260] | 26 | 260 | 31.6 | 15.5 | 74.6 | 1450 | 2240 | 10800 | 6210
11 | C[C@@H](O)[C@H](N)C(=O)N1CCC2(CC1)N[C@H](C(N)=O)CS2.Cl [A-274] | 55 | 280 | – | – | 62.7 | 1630 | 2480 | 3350 | 1880
12 | C[C@@H](O)[C@H](N)C(=O)N1CCC2(C1)N[C@H](C(=O)N1CCCCC1)CS2.Cl (some centres unmarked) [A-421] | 45 | 380 | – | – | – | – | – | – | –
13 | C[C@@H](O)[C@H](N)C(=O)N1CCC2(C1)N[C@H](C(=O)N1CCN(C)CC1)CS2.Cl (some centres unmarked) [A-429] | 57 | 660 | – | – | – | – | – | – | –
14 | C[C@@H](O)[C@H](N)C(=O)N1CCC2(CC1)N[C@H](C(=O)N1CCCCC1)CS2.Cl [A-437] | 42 | 330 | – | – | – | – | – | – | –
15 | C[C@@H](O)[C@H](N)C(=O)N1CCC2(CC1)N[C@H](C(=O)N1CCSCC1)CS2.Cl [A-449] | 38 | 470 | – | – | – | – | – | – | –
16 | CN1CCN(C(=O)[C@@H]2CSC3(CCCN(C(=O)[C@@H](N)CO)C3)N2)CC1.Cl (some centres unmarked) [A-463] | 59 | 520 | – | – | – | – | – | – | –
17 | Cl.N[C@@H](CO)C(=O)N1CC2(C1)N[C@H](C(=O)N1CCNCC1)CS2 [A-470] | 33 | 350 | – | – | – | – | – | – | –
18 | Cl.N[C@@H](CO)C(=O)N1CCC2(CC1)N[C@H](C(=O)N1CCNCC1)CS2 [A-476] | 56 | 960 | – | – | – | – | – | – | –
